The target in one assay is human orexin 1 receptor (Homo sapiens (Human), UniProt O43613). The assay is described as follows: Human orexin 1 receptor radioligand binding (competitive, [3H]-SB674042, CHO cell preparations).
The target in a further assay is human orexin 2 receptor (Homo sapiens (Human), UniProt O43614). The assay is described as follows: Human orexin 2 receptor radioligand binding (competitive, [3H]-EMPA, HEK293 cell preparations).
Another assay deals with rat orexin 1 receptor (Rattus norvegicus, UniProt P56718). The assay is described as follows: Rat orexin 1 receptor radioligand binding (competitive, [3H]-SB674042, HEK293 cell preparations). The note with it: rat orexin 1 receptor, [3H]-SB674042 competition binding; read-out: rOX1 Ki (nm).
The mark [1] stands for this setting: human orexin 2 receptor, [3H]-EMPA competition binding, read-out: hOX2 Ki (nm).
Setting [2] is: human orexin 1 receptor, [3H]-SB674042 competition binding, read-out: hOX1 Ki (nm).

What is called Ki is a measure of affinity in units of concentration, obtained from inhibition or displacement.

Like-named read-outs stand apart in the source and are kept apart here.

Chain of human orexin 1 receptor (O43613 whole entry): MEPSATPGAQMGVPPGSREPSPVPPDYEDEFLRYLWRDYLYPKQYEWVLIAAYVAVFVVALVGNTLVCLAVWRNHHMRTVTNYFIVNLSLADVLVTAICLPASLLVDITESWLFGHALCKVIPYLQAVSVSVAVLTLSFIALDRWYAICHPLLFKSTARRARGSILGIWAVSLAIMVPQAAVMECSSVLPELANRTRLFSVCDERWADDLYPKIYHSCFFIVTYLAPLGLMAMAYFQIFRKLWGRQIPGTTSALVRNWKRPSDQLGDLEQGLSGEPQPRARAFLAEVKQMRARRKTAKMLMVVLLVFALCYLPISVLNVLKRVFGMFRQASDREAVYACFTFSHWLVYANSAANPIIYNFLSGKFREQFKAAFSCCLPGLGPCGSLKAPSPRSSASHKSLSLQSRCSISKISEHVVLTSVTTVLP
Chain of human orexin 2 receptor (O43614 whole entry): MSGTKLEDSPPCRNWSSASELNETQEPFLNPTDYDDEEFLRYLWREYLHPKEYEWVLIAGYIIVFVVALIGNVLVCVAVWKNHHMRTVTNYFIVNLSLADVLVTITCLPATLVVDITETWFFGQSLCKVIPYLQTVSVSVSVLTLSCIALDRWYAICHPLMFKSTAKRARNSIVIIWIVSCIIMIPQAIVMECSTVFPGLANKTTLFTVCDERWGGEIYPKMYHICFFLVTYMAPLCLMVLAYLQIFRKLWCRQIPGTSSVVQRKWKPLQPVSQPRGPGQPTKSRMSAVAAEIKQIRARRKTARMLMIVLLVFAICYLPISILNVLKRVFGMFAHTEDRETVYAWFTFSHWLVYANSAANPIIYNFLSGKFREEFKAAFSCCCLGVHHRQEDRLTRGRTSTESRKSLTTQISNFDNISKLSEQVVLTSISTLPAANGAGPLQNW

With `O=C(c1ccccc1-c1cccs1)N1C2CCC1C(COc1ccc(F)cn1)C2` (racemic) [Example 11, (±)-(2-(((5-fluoropyridin-2-yl)oxy)methyl)-7-azabicyclo[2.2.1]heptan-7-yl)(2-(thiophen-2-yl)phenyl)methanone], the Ki at human orexin 1 receptor (hOX1 Ki (nm)) turned out to be 10 nM; on human orexin 2 receptor (hOX2 Ki (nm)), 12 nM. In the case of `Cc1ccc(-n2nccn2)c(C(=O)N2C3CCC2C(COc2nccc(C(F)(F)F)n2)C3)c1` (racemic) [Example 13, (±)-(5-methyl-2-(2H-1,2,3-triazol-2-yl)phenyl)(2-(((4-(trifluoromethyl)pyrimidin-2-yl)oxy)methyl)-7-azabicyclo[2.2.1]heptan-7-yl)methanone], the Ki at human orexin 1 receptor (hOX1 Ki (nm)) worked out at 118 nM; at human orexin 2 receptor (setting [1]), 109 nM. `Cc1ccc(-n2nccn2)c(C(=O)N2C3CCC2C(COc2ccc(C(F)(F)F)cn2)C3)c1` (racemic) [Example 14, (±)-(5-methyl-2-(2H-1,2,3-triazol-2-yl)phenyl)(2-(((5-(trifluoromethyl)pyridin-2-yl)oxy)methyl)-7-azabicyclo[2.2.1]heptan-7-yl)methanone]: the Ki on human orexin 1 receptor (hOX1 Ki (nm)) came to 50 nM; at human orexin 2 receptor (setting [1]) it was 71 nM. Turning to `Cc1ccc(-n2nccn2)c(C(=O)N2C3CCC2C(COc2ncccc2C(F)(F)F)C3)c1` (racemic) [Example 15, (±)-(5-methyl-2-(2H-1,2,3-triazol-2-yl)phenyl)(2-(((3-(trifluoromethyl)pyridin-2-yl)oxy)methyl)-7-azabicyclo[2.2.1]heptan-7-yl)methanone], the inhibition constant (Ki) on human orexin 1 receptor (hOX1 Ki (nm)) was 56 nM; at human orexin 2 receptor (setting [1]), 120 nM. Consider `Cc1ccc(-n2nccn2)c(C(=O)N2C3CCC2C(COc2cccc(C(F)(F)F)n2)C3)c1` (racemic) [Example 16, (±)-(5-methyl-2-(2H-1,2,3-triazol-2-yl)phenyl)(2-(((6-(trifluoromethyl)pyridin-2-yl)oxy)methyl)-7-azabicyclo[2.2.1]heptan-7-yl)methanone], for which the Ki on human orexin 1 receptor (setting [2]) came out at 20 nM; at human orexin 2 receptor (setting [1]) it was 42 nM.

Take `Cc1ccnc(OCC2CC3CCC2N3C(=O)c2cc(C)ccc2-n2nccn2)c1` (racemic) [Example 17, (±)-(5-methyl-2-(2H-1,2,3-triazol-2-yl)phenyl)(2-(((4-methylpyridin-2-yl)oxy)methyl)-7-azabicyclo[2.2.1]heptan-7-yl)methanone]: the Ki at human orexin 1 receptor (setting [2]) turned out to be 41 nM; on human orexin 2 receptor (setting [1]) it was 69 nM. As to `O=C(c1cc(F)ccc1-n1nccn1)N1C2CCC1C(CNc1nccc(C(F)(F)F)n1)C2` (racemic) [Example 171, (±)-(5-fluoro-2-(2H-1,2,3-triazol-2-yl)phenyl)(2-(((4-(trifluoromethyl)pyrimidin-2-yl)amino)methyl)-7-azabicyclo[2.2.1]heptan-7-yl)methanone], at human orexin 1 receptor (setting [2]), the Ki was 1930 nM. The same measure, in the same setting: as for `O=C(c1cc(F)ccc1-n1nccn1)N1C2CCC1C(CNc1cccc(C(F)(F)F)n1)C2` (racemic) [Example 172, (±)-(5-fluoro-2-(2H-1,2,3-triazol-2-yl)phenyl)(2-(((6-(trifluoromethyl)pyridin-2-yl)amino)methyl)-7-azabicyclo[2.2.1]heptan-7-yl)methanone], the figure is 686 nM; as for `O=C(c1ccccc1-n1nccn1)N1C2CCC1C(Nc1ncc(C(F)(F)F)cn1)C2` (racemic) [Example 221, (±)-(2-(2H-1,2,3-triazol-2-yl)phenyl)(2-(5-(trifluoromethyl)pyrimidin-2-yl)amino)-7-azabicyclo[2.2.1]heptan-7-yl)methanone], 200 nM. Take `O=C(c1cncc2ccccc12)N1[C@@H]2CC[C@H]1[C@H](Nc1cnc(C(F)(F)F)cn1)C2` [Example 240, isoquinolin-4-yl((1S,2R,4R)-2-((5-(trifluoromethyl)pyrazin-2-yl)amino)-7-azabicyclo[2.2.1]heptan-7-yl)methanone]: the Ki on rat orexin 1 receptor came out at 400 nM; at human orexin 2 receptor (setting [1]), 2100 nM. Turning to `Cc1ccc(C(=O)N2[C@@H]3CC[C@H]2[C@H](Nc2cnc(C(F)(F)F)cn2)C3)c(-n2nccn2)n1` [Example 247, (6-methyl-2-(2H-1,2,3-triazol-2-yl)pyridin-3-yl)((1S,2R,4R)-2-((5-(trifluoromethyl)pyrazin-2-yl)amino)-7-azabicyclo[2.2.1]heptan-7-yl)methanone], the Ki at rat orexin 1 receptor turned out to be 420 nM; on human orexin 2 receptor (setting [1]) it was 1130 nM.

For the compound `O=C(c1nc2ccccc2[nH]1)N1[C@@H]2CC[C@H]1[C@H](Nc1cnc(C(F)(F)F)cn1)C2` [Example 250, (1H-benzo[d]imidazol-2-yl)((1S,2R,4R)-2-((5-(trifluoromethyl)pyrazin-2-yl)amino)-7-azabicyclo[2.2.1]heptan-7-yl)methanone], the figures for the Ki on rat orexin 1 receptor and at human orexin 2 receptor (setting [1]) were 5650 nM and above 10000 nM, respectively. Turning to `Cn1c(C(=O)N2[C@@H]3CC[C@H]2[C@H](Nc2cnc(C(F)(F)F)cn2)C3)nc2ccccc21` [Example 251, (1-methyl-1H-benzo[d]imidazol-2-yl)((1S,2R,4R)-2-((5-(trifluoromethyl)pyrazin-2-yl)amino)-7-azabicyclo[2.2.1]heptan-7-yl)methanone], the figures for the Ki at rat orexin 1 receptor and on human orexin 2 receptor (setting [1]) were 520 nM and 5300 nM, respectively. As for `Cc1nc2sccn2c1C(=O)N1[C@@H]2CC[C@H]1[C@H](Nc1cnc(C(F)(F)F)cn1)C2` [Example 259, (6-methylimidazo[2,1-b]thiazol-5-yl)((1S,2R,4R)-2-((5-(trifluoromethyl)pyrazin-2-yl)amino)-7-azabicyclo[2.2.1]heptan-7-yl)methanone], the Ki on rat orexin 1 receptor and at human orexin 2 receptor (setting [1]) was above 10000 nM in each case. As to `COc1c(F)cccc1C(=O)N1C2CCC1C(Nc1nc(C)cc(C)n1)C2` (stereo not shown) [Example 261, (2-((4,6-dimethylpyrimidin-2-yl)amino)-7-azabicyclo[2.2.1]heptan-7-yl)(3-fluoro-2-methoxyphenyl)methanone], the Ki on rat orexin 1 receptor is above 10000 nM; on human orexin 2 receptor (setting [1]), 5000 nM. Consider `O=C(c1cccc(F)c1-c1ccnnc1)N1[C@@H]2CC[C@H]1[C@H](Nc1cnc(C(F)(F)F)cn1)C2` [Example 264, (3-fluoro-2-(pyridazin-4-yl)phenyl)((1S,2R,4R)-2-((5-(trifluoromethyl)pyrazin-2-yl)amino)-7-azabicyclo[2.2.1]heptan-7-yl)methanone], for which the Ki at rat orexin 1 receptor is 1400 nM; on human orexin 2 receptor (setting [1]) it was above 10000 nM. In the case of `Cc1cccc(C(=O)N2[C@@H]3CC[C@H]2[C@H](Nc2cnc(C(F)(F)F)cn2)C3)c1-c1ncco1` [Example 266, (3-methyl-2-(oxazol-2-yl)phenyl)((1S,2R,4R)-2-((5-(trifluoromethyl)pyrazin-2-yl)amino)-7-azabicyclo[2.2.1]heptan-7-yl)methanone], the inhibition constant Ki at rat orexin 1 receptor amounted to 5 nM; at human orexin 2 receptor (setting [1]), 121 nM. Consider `O=C(c1cccc(F)c1-c1ccncc1)N1[C@@H]2CC[C@H]1[C@H](Nc1cnc(C(F)(F)F)cn1)C2` [Example 268, (3-fluoro-2-(pyridin-4-yl)phenyl)((1S,2R,4R)-2-((5-(trifluoromethyl)pyrazin-2-yl)amino)-7-azabicyclo[2.2.1]heptan-7-yl)methanone], for which the Ki on rat orexin 1 receptor worked out at 450 nM; at human orexin 2 receptor (setting [1]) it was 3700 nM. `O=C(c1cccc(F)c1-c1ncccn1)N1[C@@H]2CC[C@H]1[C@H](Nc1nccn3c(Br)cnc13)C2` [Example 270, ((1S,2R,4R)-2-((3-bromoimidazo[1,2-a]pyrazin-8-yl)amino)-7-azabicyclo[2.2.1]heptan-7-yl)(3-fluoro-2-(pyrimidin-2-yl)phenyl)methanone]: the inhibition constant Ki at rat orexin 1 receptor was found to be 325 nM; on human orexin 2 receptor (setting [1]), 145 nM. On the same counts, the results for `O=C(c1cccc(F)c1-c1ncccn1)N1[C@@H]2CC[C@H]1[C@H](Nc1nccn3c(C(F)(F)F)nnc13)C2` [Example 274] are above 10000 nM and 2560 nM. On to `COC(=O)c1cnc(N[C@@H]2C[C@H]3CC[C@@H]2N3C(=O)c2cccc(F)c2-c2ncccn2)cn1` [Example 275, methyl 5-(((1S,2R,4R)-7-(3-fluoro-2-(pyrimidin-2-yl)benzoyl)-7-azabicyclo[2.2.1]heptan-2-yl)amino)pyrazine-2-carboxylate], for which the Ki at rat orexin 1 receptor and on human orexin 2 receptor (setting [1]) was above 10000 nM throughout. As for `O=C(c1cccc(F)c1I)N1[C@@H]2CC[C@H]1[C@H](Nc1ncc(C(F)(F)F)cn1)C2` [Example 277, (3-fluoro-2-iodophenyl)((1S,2R,4R)-2-((5-(trifluoromethyl)pyrimidin-2-yl)amino)-7-azabicyclo[2.2.1]heptan-7-yl)methanone], the inhibitory constant (Ki) at rat orexin 1 receptor worked out at 457 nM; on human orexin 2 receptor (setting [1]), 7400 nM. On to `CN(c1cnc(C(F)(F)F)cn1)[C@@H]1C[C@H]2CC[C@@H]1N2C(=O)c1cccc(F)c1-c1ncccn1` [Example 282, (3-fluoro-2-(pyrimidin-2-yl)phenyl)((1S,2R,4R)-2-(methyl(5-(trifluoromethyl)pyrazin-2-yl)amino)-7-azabicyclo[2.2.1]heptan-7-yl)methanone], for which the Ki on rat orexin 1 receptor is 486 nM; on human orexin 2 receptor (setting [1]), above 10000 nM. As to `CCOc1ccc(C)nc1C(=O)N1[C@@H]2CC[C@H]1[C@H](Nc1cnc(C(F)(F)F)cn1)C2` [Example 287, (3-ethoxy-6-methylpyridin-2-yl)((1S,2R,4R)-2-((5-(trifluoromethyl)pyrazin-2-yl)amino)-7-azabicyclo[2.2.1]heptan-7-yl)methanone], the results for the inhibitory constant (Ki) on rat orexin 1 receptor and on human orexin 2 receptor (setting [1]) were 472 nM and 767 nM, respectively. With `COc1cccc(-c2c(C)cnn2C)c1C(=O)N1[C@@H]2CC[C@H]1[C@H](Nc1cnc(C(F)(F)F)cn1)C2` [Example 292, (2-(1,4-dimethyl-1H-pyrazol-5-yl)-6-methoxyphenyl)((1S,2R,4R)-2-((5-(trifluoromethyl)pyrazin-2-yl)amino)-7-azabicyclo[2.2.1]heptan-7-yl)methanone], the Ki on rat orexin 1 receptor and on human orexin 2 receptor (setting [1]) was above 10000 nM throughout. Consider `O=C(c1cccc(F)c1-c1ncccn1)N1[C@H]2CC[C@@H]1[C@@H](Nc1cnc(C(F)(F)F)cn1)C2` [Example 297, (3-fluoro-2-(pyrimidin-2-yl)phenyl)((1R,2S,4S)-2-((5-(trifluoromethyl)pyrazin-2-yl)amino)-7-azabicyclo[2.2.1]heptan-7-yl)methanone], for which the Ki on rat orexin 1 receptor and on human orexin 2 receptor (setting [1]) was above 10000 nM throughout.
